Laboratory results as given in patent US5776944A, “7-(4-aminomethyl-3-methyloxyiminopyrroplidin-1-yl)-1-cyclopropyl-6-flu oro-4-oxo-1,4-dihydro-1,8-naphthyridine-3-carboxylic acid and the process for the preparation thereof” (LG Chemical Ltd., priority 1994, dated 1998).
≈ marks a conversion by molar mass, not a printed value. Read-outs that look alike come from different tables or passages of the source.

Columns and labels:
Assay type in all cases: cell-based
[1] = tested on: Escherichia coli TEM3 3455E; assay: microbe, parasite or virus in culture; conditions: TEM33455E, 18 h, read-out: Minimum Inhibitory Concentration
[2] = tested on: Acinetobacter calcoaceticus 15473; assay: In vitro antibacterial activity (MIC, agar dilution), Biological Example 1; conditions: read-out: Minimum Inhibitory Concentration
[3] = tested on: Staphylococcus aureus 6538p; assay: as above; conditions: 18 h, Table 25, read-out: Minimum Inhibitory Concentration
[4] = tested on: Escherichia coli TEM9 2639E; assay: microbe, parasite or virus in culture; conditions: TEM92639E, 18 h, read-out: Minimum Inhibitory Concentration
[5] = tested on: Escherichia coli 10536; assay: In vitro antibacterial activity (MIC, agar dilution), Biological Example 1; conditions: read-out: Minimum Inhibitory Concentration
[6] = tested on: Enterobacter cloacae 1194E; assay: microbe, parasite or virus in culture; conditions: 18 h, read-out: Minimum Inhibitory Concentration
[7] = tested on: Staphylococcus aureus 241; assay: In vitro antibacterial activity (MIC, agar dilution), Biological Example 1; conditions: 18 h; Staphylococcus aureus 241, Table 25; read-out: Minimum Inhibitory Concentration
[8] = tested on: Bacillus subtilis 6633; assay: as above; conditions: 18 h; Bacillus subtilis 6633, Table 25; read-out: Minimum Inhibitory Concentration
[9] = tested on: Micrococcus luteus 9341; assay: as above; conditions: 18 h; Micrococcus luteus 9341, Table 25; read-out: Minimum Inhibitory Concentration
[10] = tested on: Staphylococcus epidermidis 178; assay: as above; conditions: 18 h; Staphylococcus epidermidis 178, Table 25; read-out: Minimum Inhibitory Concentration
[11] = tested on: Salmonella typimurium 14028; assay: as above; conditions: 18 h; Salmonella typimurium 14028, Table 25; read-out: Minimum Inhibitory Concentration
[12] = tested on: Staphylococcus epidermidis 887E; assay: as above; conditions: 18 h, Table 25, read-out: Minimum Inhibitory Concentration
[13] = tested on: Escherichia coli 3190Y; assay: as above; conditions: 18 h, Table 25, read-out: Minimum Inhibitory Concentration
[14] = tested on: Klebsiella aerogenes 1082E; assay: as above; conditions: 18 h, Table 25, read-out: Minimum Inhibitory Concentration
[15] = tested on: Staphylococcus aureus giorgio; assay: as above; conditions: 18 h, Table 25, read-out: Minimum Inhibitory Concentration
[16] = tested on: Escherichia coli TEM5 3739E; assay: microbe, parasite or virus in culture; conditions: TEM53739E, 18 h, read-out: Minimum Inhibitory Concentration
[17] = tested on: Staphylococcus aureus 77; assay: In vitro antibacterial activity (MIC, agar dilution), Biological Example 1; conditions: 18 h; Staphylococcus aureus 77, Table 25; read-out: Minimum Inhibitory Concentration
[18] = tested on: Escherichia coli 851E; assay: as above; conditions: 18 h, Table 25, read-out: Minimum Inhibitory Concentration
[19] = tested on: Enterobacter cloacae P99; assay: microbe, parasite or virus in culture; conditions: P99, 18 h, read-out: Minimum Inhibitory Concentration
[20] = tested on: Citrobacter diversus 2046E; assay: In vitro antibacterial activity (MIC, agar dilution), Biological Example 1; conditions: Citrobacter koseri, 18 h, Table 25, read-out: Minimum Inhibitory Concentration
[21] = tested on: Streptococcus faecalis 29212; assay: as above; conditions: Enterococcus faecalis, 18 h; Streptococcus faecalis 29212, Table 25; read-out: Minimum Inhibitory Concentration
[22] = tested on: Pseudomonas aeruginosa 1912E; assay: as above; conditions: 18 h, read-out: Minimum Inhibitory Concentration
[23] = tested on: Klebsiella aerogenes 1976E; assay: as above; conditions: 18 h, Table 25, read-out: Minimum Inhibitory Concentration
[24] = tested on: Pseudomonas aeruginosa 10145; assay: as above; conditions: 18 h; Pseudomonas aeruginosa 10145, Table 25; read-out: Minimum Inhibitory Concentration
[25] = Acinetobacter calcoaceticus, 15473, 18 h
[26] = 18 h, Acinetobacter calcoaceticus 15473, Table 25
[27] = 18 h, Escherichia coli 10536, Table 25
[28] = Pseudomonas aeruginosa 1912E, Table 25

| SMILES | MIC [1] [µg/mL] | MIC [3] [µg/mL] | MIC [4] [µg/mL] | MIC [6] [µg/mL] | MIC [7] [µg/mL] | MIC [8] [µg/mL] | MIC [9] [µg/mL] | MIC [10] [µg/mL] | MIC [11] [µg/mL] | MIC [12] [µg/mL] | MIC [13] [µg/mL] | MIC [14] [µg/mL] | MIC [15] [µg/mL] | MIC [16] [µg/mL] | MIC [17] [µg/mL] | MIC [18] [µg/mL] | MIC [19] [µg/mL] | MIC [20] [µg/mL] | MIC [21] [µg/mL] | MIC [23] [µg/mL] | also measured |
| --- | --- | --- | --- | --- | --- | --- | --- | --- | --- | --- | --- | --- | --- | --- | --- | --- | --- | --- | --- | --- | --- |
| CON=C1CN(c2c(F)cc3c(=O)c(C(=O)O)cn(C4CC4)c3c2Cl)CC1CN (stereo not drawn) [Example 178, 7-(4-aminomethyl-3-methoxyiminopyrrolidin-1-yl)-8-chloro-1-cycloprooyl-6-fluoro-4-oxo-1,4-dihydroquinoline-3-carboxylic acid] | 1 (≈ 2.36 µM) | 0.031 (≈ 0.0733 µM) | 0.25 (≈ 0.591 µM) | 0.13 (≈ 0.307 µM) | 1 (≈ 2.36 µM) | 0.016 (≈ 0.0378 µM) | 0.25 (≈ 0.591 µM) | 1 (≈ 2.36 µM) | 0.063 (≈ 0.149 µM) | 0.031 (≈ 0.0733 µM) | 0.016 (≈ 0.0378 µM) | 0.25 (≈ 0.591 µM) | 0.016 (≈ 0.0378 µM) | 0.5 (≈ 1.18 µM) | 0.031 (≈ 0.0733 µM) | 0.063 (≈ 0.149 µM) | 0.063 (≈ 0.149 µM) | 0.13 (≈ 0.307 µM) | 0.063 (≈ 0.149 µM) | 0.5 (≈ 1.18 µM) | MIC [2, 25]: 0.13 µg/mL (≈ 0.307 µM); MIC ([5]; Escherichia coli, 10536, 18 h): 0.031 µg/mL (≈ 0.0733 µM); MIC ([22]; Pseudomonas aeruginosa, 1912E): 0.5 µg/mL (≈ 1.18 µM); MIC [24]: 1 µg/mL (≈ 2.36 µM) |
| CON=C1CN(c2cc3c(cc2F)c(=O)c(C(=O)O)cn3C2CC2)CC1CN (stereo not drawn) [Example 179, 7-(4-aminomethyl-3-methoxyiminopyrrolidin-1-yl)-1-cyclopronyl-6-fluoro-4-oxo-1,4-dihydroquinoline-3-carboxylic acid] | 0.13 (≈ 0.335 µM) | ≤ 0.008 | 0.031 (≈ 0.0798 µM) | 0.031 (≈ 0.0798 µM) | 2 (≈ 5.15 µM) | ≤ 0.008 | 0.13 (≈ 0.335 µM) | 2 (≈ 5.15 µM) | 0.063 (≈ 0.162 µM) | 0.016 (≈ 0.0412 µM) | ≤ 0.008 | 0.031 (≈ 0.0798 µM) | 0.016 (≈ 0.0412 µM) | 0.063 (≈ 0.162 µM) | 0.031 (≈ 0.0798 µM) | ≤ 0.008 | 0.008 (≈ 0.0206 µM) | 0.031 (≈ 0.0798 µM) | 0.031 (≈ 0.0798 µM) | 0.13 (≈ 0.335 µM) | MIC [2, 25]: 0.016 µg/mL (≈ 0.0412 µM); MIC ([5]; Escherichia coli, 10536, 18 h): < 0.008 µg/mL; MIC ([22]; Pseudomonas aeruginosa, 1912E): 0.25 µg/mL (≈ 0.644 µM); MIC [24]: 0.25 µg/mL (≈ 0.644 µM) |
| NCC1CN(c2c(F)c(N)c3c(=O)c(C(=O)O)cn(C4CC4)c3c2F)CC1=NOCc1ccccc1 (stereo not drawn) [Example 56, 5-amino-7-(4-aminomethyl-3-benzyloxylmino-pyrrolidin-1-yl)-1-cyclopropyl6,8-difluoro-1,4-dihydro-4-oxoquinoline-3-carboxylic acid] | 0.5 (≈ 1.01 µM) | ≤ 0.008 | 0.063 (≈ 0.127 µM) | 0.031 (≈ 0.0623 µM) | 2 (≈ 4.02 µM) | ≤ 0.008 | 0.063 (≈ 0.127 µM) | 2 (≈ 4.02 µM) | 0.031 (≈ 0.0623 µM) | ≤ 0.008 | ≤ 0.008 | 0.016 (≈ 0.0322 µM) | ≤ 0.008 | 0.25 (≈ 0.503 µM) | ≤ 0.008 | ≤ 0.008 | ≤ 0.008 | 0.016 (≈ 0.0322 µM) | 0.016 (≈ 0.0322 µM) | 0.5 (≈ 1.01 µM) | MIC [2, 26]: ≤ 0.008 µg/mL; MIC [5, 27]: ≤ 0.008 µg/mL; MIC [22, 28]: 2 µg/mL (≈ 4.02 µM); MIC [24]: 2 µg/mL (≈ 4.02 µM) |
| CC(C)CON=C1CN(c2nc3c(cc2F)c(=O)c(C(=O)O)cn3C2CC2)CC1CN (stereo not drawn) [Example 102] | 0.5 (≈ 1.16 µM) | 0.016 (≈ 0.0371 µM) | 0.063 (≈ 0.146 µM) | 0.25 (≈ 0.579 µM) | 4 (≈ 9.27 µM) | ≤ 0.008 | 0.063 (≈ 0.146 µM) | 1 (≈ 2.32 µM) | 0.25 (≈ 0.579 µM) | ≤ 0.008 | ≤ 0.008 | 0.25 (≈ 0.579 µM) | ≤ 0.008 | 0.25 (≈ 0.579 µM) | 0.016 (≈ 0.0371 µM) | 0.063 (≈ 0.146 µM) | 0.031 (≈ 0.0718 µM) | 0.13 (≈ 0.301 µM) | 0.063 (≈ 0.146 µM) | 0.5 (≈ 1.16 µM) | MIC [2, 26]: 0.063 µg/mL (≈ 0.146 µM); MIC [5, 27]: ≤ 0.008 µg/mL; MIC [22, 28]: 2 µg/mL (≈ 4.64 µM); MIC [24]: 2 µg/mL (≈ 4.64 µM) |
